Each structure is given as a SMILES string.

In series [1] the test system is murine experimental allergic encephalomyelitis. The series is described as follows: Murine multiple sclerosis model (experimental allergic encephalomyelitis). It counts as in vivo. To be noted: animals treated in the murine EAE model, 20 mg/kg/day.
Series [2] has as its system TNF-alpha production by PBMC. The series is described as follows: TNF-alpha assay, LPS-stimulated PBMC, sandwich ELISA. It counts as cell-based, human. Conditions: Table 7; same conditions as example 26; read-out: TNFα IC50. As to the method:
(§1) All reagents were dissolved in 0.5 ml dimethylsulfoxide (hereinafter referred as DMSO) and further diluted in culture medium before use for the following in vitro experiments. The commercially available culture medium consisted of RPMI-1640+10% foetal calf serum (FCS). Peripheral blood mononuclear cells (herein referred as PBMC), in response to stimulation by lipopolysaccharide (LPS), a gram-negative bacterial endotoxin, produce various […], in particular human TNF-alpha and II-1 beta. The inhibition of the activation of PBMC can be measured by the level of suppression of the production of TNF-alpha or IL-1 beta by PBMC in response to stimulation by LPS. Such inhibition measurement was performed as follows: PBMC were isolated from heparinized peripheral blood (Buffy coat) by density gradient centrifugation. LPS is then added to the PMBC suspension in complete medium (10^6 cells/ml) at a final concentration of 1 μg/ml. The compound to be tested was added at different dilution levels, and the cells were incubated at 37° C. for 72 hours. The supernatants were collected, and TNF-alpha or II-1 beta concentrations were measured with respectively an anti-TNF antibody or an anti-IL-1 beta antibody in a sandwich ELISA. The percent inhibition was calculated as: % inhibition=(pg/ml in sample−pg/ml min.)/(pg/ml max.−pg/ml min.)−1 wherein: min.: pg/ml in culture medium without test compound, and • max.: pg/ml in culture medium+LPS without test compound.

The test system of series [3] is peripheral blood mononuclear cells (PBMC). Put plainly: Mixed lymphocyte reaction (MLR) test. The format is cell-based, human. Conditions: Table 7; same conditions as example 26. As to the method:
All reagents were dissolved in 0.5 ml dimethylsulfoxide (hereinafter referred as DMSO) and further diluted in culture medium before use for the following in vitro experiments. The commercially available culture medium consisted of RPMI-1640+10% foetal calf serum (FCS). Peripheral blood mononuclear cells (hereinafter referred as PBMC) were isolated from heparinized peripheral blood by density gradient centrifugation over Lymphoprep (Nycomed, Maorstua, Norway). Allogeneic PBMC or […]-Barr Virus-transformed human B cells [commercially available under the trade name RPMI1788 (ATCC name CCL156)] which strongly express B7-1 and B7-2 antigens were used as stimulator cells after irradiation with 30 Gy. MLR was performed in triplicate wells. After 5 days incubation at 37° C., 1 μCi [^3H]-thymidine was added to each cup. After a further 16 hours incubation, cells were harvested and counted in a β-counter. Inhibition of proliferation by a compound (drug) described in some of the previous examples was counted using the formula: [formula] wherein cpm is the thymidine count per minute. TNF-Alpha and IL-1 Beta Assays

Series [4] concerns IL-1 beta production by PBMC. The series is described as follows: IL-1 beta assay, LPS-stimulated PBMC, sandwich ELISA. The format is cell-based, human. To be noted: Table 7; same conditions as example 26; read-out: IL1β IC50. The method, then: as §1
For series [5], the system named is murine experimental allergic encephalomyelitis. To be noted: mouse, in vivo; cited from earlier work.

Take `Cn1c(=O)[nH]c(=O)c2nc(-c3ccc(F)cc3)c(Cl)nc21` [Example 42, 7-chloro-6-(4-fluorophenyl)-1-methyl-lumazine]: the sign of toxicity result in series [1] is “did not show any sign of toxicity”. Also, the IC50 stood at 4.7 µM in series [2], 4.8 µM in series [3] and 0.7 µM in series [4].
For the compound `O=C1c2c(O)ccc(O)c2C(=O)c2c(NCCNCCO)ccc(NCCNCCO)c21` [mitoxantrone], the “heart and kidney toxicity” value in series [5] was “induces heart and kidney toxicity”.
